# Reference: EP0345356A1, “PLATINUM COMPLEX AND THERAPEUTIC AGENT FOR MALIGNANT TUMOR” (TORAY INDUSTRIES, INC., priority 1987, dated 1989)
# “And” between values parts separate entries of the source, which are not always exact repeats. Equal values may be shown once.
# Tests used:
# [1] = system: L1210 murine leukemia cells; assay: Antitumor activity against L1210 leukemia in mice; assay type: in vivo, CDF1 mice; conditions: for Survival days (mean ± SD) / T/C (%): given on 1st, 5th and 9th days after tumor inoculation; for Survival rate: number of 30 days survival mice / group
# Protocol: L1210 murine leukemia cells which were subcultured in DBA/2 mouse were inoculated intraperitoneally into CDF1 mice at 10^5 cells/mouse. Each experimental group was composed of 6-10 mice (male, 6-weeks old). Each test compound was administered three times, i.e., on the 1st, 5th and 9th days after tumor inoculation. […] Each compound was dissolved or suspended in 0.05% "Tween 80" solution and administered in mice.
# Slc:ICR mice = assay: Acute toxicity test in mice (LD50, Miller-Tainter method); assay type: in vivo; conditions: intraperitoneal, Slc:ICR mice (male), death rate on the 14th day
# Protocol: Platinum complexes to be tested was administered intraperitoneally to Slc:ICR mice (male, 5 weeks old, 6 mice/group). Each complex was used in the form of a solution or suspension in a 0.05% "Tween 80" in saline. The LD50 value was calculated by the Miller-Tainter method from the death rate on the 14th day from the date of the administration.
compound,measurement,setting,value
"NC1CCCCC1N.O=C([O-])c1ccc(=O)oc1.O=C([O-])c1ccc(=O)oc1.[Pt+2] [XXII-1, bis(2-pyrone-5-carboxylato)(trans-ℓ-dach)platinum(II)]",Survival days (mean ± SD),"[1]; Dose 1 mg/kg, 1 mg/kg",9.0 ± 0.9 days and 11.3 ± 0.8 days
same,T/C (%),"[1]; Dose 1 mg/kg, 1 mg/kg",108% and 140%
same,Survival rate,[1]; Dose 1 mg/kg,0/6
same,Survival rate,"[1]; Dose 10 mg/kg, 10 mg/kg",0/6 and 2/6
same,Survival rate,"[1]; Dose 25 mg/kg, 25 mg/kg",0/6 and 3/6
same,Survival days (mean ± SD),"[1]; Dose 50 mg/kg, 50 mg/kg",15.2 ± 3.1 days and 17.8 ± 2.8 days
same,T/C (%),"[1]; Dose 50 mg/kg, 50 mg/kg",183% and 220%
same,Survival rate,[1]; Dose 50 mg/kg,0/6
same,Survival days (mean ± SD),"[1]; Dose 100 mg/kg, 100 mg/kg",20.7 ± 7.2 days and 12.3 ± 2.7 days
same,T/C (%),"[1]; Dose 100 mg/kg, 100 mg/kg",249% and 152%
same,Survival rate,"[1]; Dose 100 mg/kg, 100 mg/kg",1/6 and 0/6
same,Survival rate,[1]; Dose 200 mg/kg,0/6
same,LD50 values,Slc:ICR mice,>200 mg/kg
"NC1CCCCC1N.O=C([O-])c1cc2ccccc2[nH]1.O=C([O-])c1cc2ccccc2[nH]1.[Pt+2] [XXIII-1, Bis(indole-2-carboxylato)(trans-ℓ-dach)platinum(II)]",Survival days (mean ± SD),[1]; Dose 1 mg/kg,8.5 ± 0.8 days
same,T/C (%),[1]; Dose 1 mg/kg,102%
same,Survival rate,[1]; Dose 1 mg/kg,0/6
same,Survival days (mean ± SD),[1]; Dose 10 mg/kg,10.5 ± 1.0 days
same,T/C (%),[1]; Dose 10 mg/kg,127%
same,Survival rate,[1]; Dose 10 mg/kg,0/6
same,Survival days (mean ± SD),[1]; Dose 25 mg/kg,15.0 ± 5.4 days
same,T/C (%),[1]; Dose 25 mg/kg,181%
same,Survival rate,[1]; Dose 25 mg/kg,0/6
same,Survival days (mean ± SD),[1]; Dose 50 mg/kg,18.7 ± 9.2 days
same,T/C (%),[1]; Dose 50 mg/kg,225%
same,Survival rate,[1]; Dose 50 mg/kg,1/6
same,Survival days (mean ± SD),[1]; Dose 100 mg/kg,21.2 ± 7.9 days
same,T/C (%),[1]; Dose 100 mg/kg,255%
same,Survival rate,[1]; Dose 100 mg/kg,2/6
same,Survival days (mean ± SD),[1]; Dose 200 mg/kg,8.2 ± 1.9 days
same,T/C (%),[1]; Dose 200 mg/kg,99%
same,Survival rate,[1]; Dose 200 mg/kg,0/6
same,LD50 values,Slc:ICR mice,180 mg/kg
